PubChem BioAssay (NCI)
Values joined by “and” are separate entries in the source; they are usually repeats but may differ in a detail not shown here. Equal entries are not always repeated.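 1) Cells in 96-well plates. 2) Compound, 48 h, 5 concentrations. 3) Linear interpolation between surrounding doses. 4) Unreached endpoint = highest concentration. Here, GI50 denotes the concentration required for 50% inhibition of growth. At the TGI there is no net growth.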

Legend:
Assay in all cases: DTP human tumour cell line panel, 48 h
SNB-78 CNS = tested on: SNB-78 CNS
DLD-1 colon = tested on: DLD-1 colon
HS 578T breast = tested on: HS 578T breast
SF-539 CNS = tested on: SF-539 CNS
T-47D breast = tested on: T-47D breast
CAKI-1 renal = tested on: CAKI-1 renal
NCI/ADR-RES ovarian = tested on: NCI/ADR-RES ovarian
BT-549 breast = tested on: BT-549 breast
DMS 114 small cell lung = tested on: DMS 114 small cell lung
MDA-MB-231 breast = tested on: MDA-MB-231 breast

Row | Structure (SMILES) | TGI (SNB-78 CNS) | TGI (DLD-1 colon) | TGI (HS 578T breast) | TGI (SF-539 CNS) | TGI (T-47D breast) | TGI (CAKI-1 renal) | TGI (NCI/ADR-RES ovarian) | TGI (BT-549 breast) | TGI (DMS 114 small cell lung) | TGI (MDA-MB-231 breast) | GI50 (SNB-78 CNS) | GI50 (DLD-1 colon) | GI50 (HS 578T breast) | GI50 (SF-539 CNS) | GI50 (T-47D breast) | GI50 (CAKI-1 renal) | GI50 (NCI/ADR-RES ovarian) | GI50 (DMS 114 small cell lung) | GI50 (MDA-MB-231 breast)
1 | NC(=O)c1cccc([C@@H]2O[C@H](CO)[C@@H](O)[C@H]2O)c1 | 24.4 µM | 35.9 µM | 74.5 µM | 6.28 µM | > 66.6 µM | > 69.1 µM | 16.3 µM | 43.4 µM | 32.7 µM | > 100 µM | – | – | – | – | – | – | – | – | –
2 | O=C(O)/C=C/C(=O)N1C/C(=C\c2ccccc2)C(=O)/C(=C/c2ccccc2)C1 | 24.2 µM | 12.2 µM | – | 26.7 µM | – | 31.1 µM | 61.7 µM | – | 8.78 µM | – | – | – | – | – | – | – | – | – | –
3 | CC(CCCOC(c1ccccc1)(c1ccccc1)c1ccccc1)OC(=O)Nc1ccccc1 (stereo not drawn) | 31.9 µM | 27.1 µM | – | 31.7 µM | – | 26.8 µM | – | – | 24.5 µM | – | – | – | – | – | – | – | – | – | –
4 | O=[N+]([O-])c1ccc(Cl)cc1C1SCc2nc3ccccc3n21 (stereo not drawn) | > 100 µM | > 100 µM | – | > 100 µM | – | > 100 µM | – | – | > 100 µM | – | – | – | – | – | – | – | – | – | –
5 | CCOC(OC1=C(C#N)CCCC1)C(C)[Se]c1ccccc1 (stereo not drawn) | > 100 µM | > 100 µM | – | 38 µM | – | > 100 µM | – | – | 15.4 µM | – | – | – | – | – | – | – | – | – | –
6 | CN(C)C(=S)/N=c1\ss/c(=N\S(=O)(=O)c2ccccc2)n1N(C)C | > 100 µM | > 100 µM | – | > 100 µM | – | > 100 µM | – | – | 85.9 µM | – | – | – | – | – | – | – | – | – | –
7 | COc1ccc(CCNCCCC2c3ccccc3-c3ccccc32)cc1OC | 32.1 µM | 30.5 µM | 39.8 µM | 30.8 µM | 34.3 µM | 33.4 µM | 33.2 µM | 35.6 µM | 20.3 µM | – | – | – | – | – | – | – | – | – | –
8 | O=C(Nc1ccn(CCI)c(=O)n1)c1ccccc1 | > 100 µM | > 100 µM | – | > 100 µM | – | > 100 µM | – | – | > 100 µM | – | – | – | – | – | – | – | – | – | –
9 | O=C(NO)c1ccc(O)c(O)c1 | > 100 µM | > 100 µM | – | > 100 µM | – | > 100 µM | – | – | > 100 µM | – | – | – | – | – | – | – | – | – | –
10 | O=C(O)C1=C(C(=O)Nc2ccc(NC(=O)C3=C(C(=O)O)C4C=CC3C4)cc2)C2C=CC1C2 | > 100 µM | > 100 µM | – | > 100 µM | – | > 100 µM | – | – | > 100 µM | – | – | – | – | – | – | – | – | – | –
11 | [Cl][Cd][Cl] | 56.9 µM | – | 57.4 µM | 47.4 µM and 62.5 µM | 19.5 µM | 34.8 µM and 22.2 µM | 277 µM | 2.07 µM and 17.6 µM | > 55 µM | 53.9 µM | 21.3 µM | > 58.6 µM | 10.1 µM | 4.51 µM and 19.5 µM and 18.9 µM | 9.63 µM | 17.7 µM and 10.9 µM | 120 µM | 25.8 µM | 16.5 µM
12 | C[C@H]1C(=O)CC[C@]2(C)CCC(C(C)(C)O)CC12O (stereo partly drawn) | > 100 µM | > 100 µM | – | > 100 µM | – | > 100 µM | – | – | > 100 µM | – | – | – | – | – | – | – | – | – | –
13 | CCC(=O)N/N=C(\C=C\c1cccc(O)c1)c1sc(Nc2ccc(C)cc2[N+](=O)[O-])nc1C | > 100 µM | > 100 µM | – | > 100 µM | – | > 100 µM | – | – | > 100 µM | – | – | – | – | – | – | – | – | – | –
